Results published in the supplement of paper PMC10307832.

Tests used:
Experiment in all cases: relative viability (nuclei count vs DMSO), 5 days (fraction); higher = more cells survive
[1] = test system: NCI-H1395; details: first compound 1 µM
How it was run: (§1)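 Five library-drug doses in √10 steps were combined with a fixed anchor-drug dose, or a single drug was given alone, by pin tool to lung cancer cell lines in 1536-well plates the day after seeding. Nuclei were stained and counted after 5 days. Relative viability is the nuclei count in treated wells over that in vehicle wells, taken as the median of duplicate plates.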

[2] = test system: NCI-H1793
How it was run: as §1

[3] = test system: NCI-H1944
How it was run: as §1

[4] = test system: NCI-H1993
How it was run: as §1

[5] = test system: NCI-H2023
How it was run: as §1

[6] = test system: NCI-H2126
How it was run: as §1

[7] = test system: NCI-H2228
How it was run: as §1

[8] = test system: NCI-H23
How it was run: as §1

[9] = test system: NCI-H2405
How it was run: as §1

[10] = test system: NCI-H838
How it was run: as §1

[11] = test system: SK-LU-1
How it was run: as §1

With `O=c1cc(N2CCOCC2)oc2c(-c3cccc4c3sc3ccccc34)cccc12` + CC1(C)CCC(c2ccc(Cl)cc2)=C(CN2CCN(c3ccc(C(=O)NS(=O)(=O)c4ccc(N[C@H](CCN5CCOCC5)CSc5ccccc5)c(S(=O)(=O)C(F)(F)F)c4)cc3)CC2)C1 [Navitoclax] (partner 0.5 µM) the relative viability [1] was 1.23, the relative viability ([2]; first compound 0.01 µM) was 0.471 and the relative viability ([2]; first compound 0.03162 µM) was 0.468. The relative viability ([2]; first compound 0.1 µM) was 0.54, the relative viability ([2]; first compound 0.3162 µM) was 0.367 and the relative viability ([2]; first compound 1 µM) was 0.382. The relative viability ([3]; first compound 0.01 µM) was 1.03, the relative viability ([3]; first compound 0.03162 µM) was 1.1 and the relative viability ([3]; first compound 0.1 µM) was 1.07. It also gave a relative viability ([3]; first compound 0.3162 µM) of 1.09, a relative viability ([3]; first compound 1 µM) of 1.05 and a relative viability ([4]; first compound 0.01 µM) of 1.02. The relative viability ([4]; first compound 0.03162 µM) was 0.953, the relative viability ([4]; first compound 0.1 µM) was 0.976 and the relative viability ([4]; first compound 0.3162 µM) was 0.921. The relative viability ([4]; first compound 1 µM) was 0.887, the relative viability ([5]; first compound 0.01 µM) was 1.07 and the relative viability ([5]; first compound 0.03162 µM) was 0.912. The relative viability ([5]; first compound 0.1 µM) was 1, the relative viability ([5]; first compound 0.3162 µM) was 0.99 and the relative viability ([5]; first compound 1 µM) was 1.01. For the same compound, the relative viability ([6]; first compound 0.01 µM) was 0.845, the relative viability ([6]; first compound 0.03162 µM) was 0.839 and the relative viability ([6]; first compound 0.1 µM) was 0.868. It also gave a relative viability ([6]; first compound 0.3162 µM) of 0.889, a relative viability ([6]; first compound 1 µM) of 0.794 and a relative viability ([7]; first compound 0.03162 µM) of 0.895. It also gave a relative viability ([7]; first compound 0.1 µM) of 1.16, a relative viability ([7]; first compound 0.3162 µM) of 0.897 and a relative viability ([7]; first compound 1 µM) of 1.19. For the same compound, the relative viability ([8]; first compound 0.01 µM) was 0.981, the relative viability ([8]; first compound 0.03162 µM) was 0.846 and the relative viability ([8]; first compound 0.3162 µM) was 0.832. The relative viability ([8]; first compound 1 µM) was 0.777, the relative viability ([9]; first compound 0.01 µM) was 0.837 and the relative viability ([9]; first compound 0.03162 µM) was 1.01. It also gave a relative viability ([9]; first compound 0.1 µM) of 0.838, a relative viability ([9]; first compound 0.3162 µM) of 0.811 and a relative viability ([9]; first compound 1 µM) of 0.95. It also gave a relative viability ([10]; first compound 0.01 µM) of 1.17, a relative viability ([10]; first compound 0.03162 µM) of 1.13 and a relative viability ([10]; first compound 0.1 µM) of 1.13. It also gave a relative viability ([10]; first compound 0.3162 µM) of 1.1, a relative viability ([10]; first compound 1 µM) of 1.1 and a relative viability ([11]; first compound 0.03162 µM) of 0.954. For the same compound, the relative viability ([11]; first compound 0.1 µM) was 1.1, the relative viability ([11]; first compound 0.3162 µM) was 1.18 and the relative viability ([11]; first compound 1 µM) was 0.77.
